The values below come from ChEMBL document CHEMBL1201862, “PubChem BioAssay data set” (2004).

Among the test systems are KM12; UACC-257; HCT-15; EKVX; SNB-19; COLO 205; NCI-H460; SF-539; SK-MEL-28; SK-MEL-5; SF-268; SK-OV-3; M14; HOP-62; UACC-62; SNB-75; OVCAR-5; SW-620; HOP-92; RPMI-8226.
Common to all, as to experiment: DTP human tumour cell line panel, 48 h

The structures appear in SMILES notation.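 How tested: cells in 96-well plates exposed to compound for 48 hours at five concentrations. Abbreviation: GI50, concentration required for 50% inhibition of growth.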 Active and inactive are the calls of the source. Cut-off read from the data, not from the text of the source: active = GI50 up to about 1.1 µM and inactive = higher.

As a reminder, the GI50 is the concentration at which growth is held to half of that of the control. On to `Nc1nc(SCCC/C=C/I)nc2c1ncn2C1OC(COP(=O)(O)O)C(O)C1O` (stereo unspecified), for which the GI50 in the test with KM12 was > 100 µM (inactive); in the test on UACC-257, > 100 µM (inactive); in the test with HCT-15, above 100 µM; with EKVX, > 100 µM (inactive); with SNB-19 it was > 100 µM (inactive); in the test with COLO 205, > 100 µM (inactive). For the same compound, the GI50 in the test with NCI-H460, in the test with SF-539, in the test on SK-MEL-28, with SK-MEL-5, with SF-268 and in the test on SK-OV-3 was > 100 µM (inactive) each time. The GI50 in the test with M14, in the test on HOP-62, with UACC-62, with SNB-75, in the test on OVCAR-5 and in the test on SW-620 was > 100 µM (inactive) each time. Also, the GI50 in the test on HOP-92 is > 100 µM (inactive).
`COC(=O)/C=C\n1ncc(=O)[nH]c1=O`: the GI50 in the test on KM12 is > 10 µM (inactive); with UACC-257, > 100 µM (inactive); with HCT-15, above 100 µM; in the test on EKVX it was > 100 µM (inactive); in the test on SNB-19, > 100 µM (inactive); in the test with COLO 205, > 100 µM (inactive). The GI50 in the test on NCI-H460, in the test with SK-MEL-28, in the test on SK-MEL-5, in the test on SF-268, in the test with M14 and with HOP-62 was > 100 µM (inactive) throughout. For the same compound, the GI50 with SNB-75, in the test with OVCAR-5, in the test on SW-620, with RPMI-8226 and in the test with HOP-92 was > 100 µM (inactive) in each case.
Consider `CCOC(=O)c1csc(NC(=O)CN2CCN(c3ccccc3)CC2)n1`, for which the GI50 is > 100 µM (inactive) in the test with KM12; > 100 µM (inactive) in the test on UACC-257; above 100 µM in the test with HCT-15; > 100 µM (inactive) with EKVX; > 100 µM (inactive) in the test with SNB-19; > 100 µM (inactive) with COLO 205. Further, the GI50 in the test on NCI-H460 is > 100 µM (inactive); in the test on SK-MEL-28, > 100 µM (inactive); with SK-MEL-5, 34.8 µM (inactive); in the test on SK-OV-3, > 100 µM (inactive); with M14, > 100 µM (inactive); with HOP-62, > 100 µM (inactive). For the same compound, the GI50 with UACC-62 is > 100 µM (inactive); in the test with SNB-75, 38.4 µM (inactive); in the test with OVCAR-5, > 100 µM (inactive); with SW-620, > 100 µM (inactive); with RPMI-8226, > 100 µM (inactive); in the test on HOP-92 it was > 100 µM (inactive).
Consider `O=C(Nc1ccccc1)N1CCN(C(=O)Nc2ccccc2)C1=S`, for which the GI50 in the test with KM12 is > 100 µM (inactive); with UACC-257, > 100 µM (inactive); in the test with HCT-15 it was 88.5 µM; in the test on EKVX it was > 100 µM (inactive); with COLO 205, > 100 µM (inactive); with NCI-H460 it was 65 µM (inactive). Moreover, the GI50 is 18.5 µM (inactive) in the test with SF-539; > 100 µM (inactive) with SK-MEL-28; > 100 µM (inactive) in the test on SK-MEL-5; 20 µM (inactive) with SF-268; 28.6 µM (inactive) in the test with SK-OV-3; 56.4 µM (inactive) in the test on M14. The GI50 in the test on HOP-62 is 25.2 µM (inactive); with SNB-75, 17.9 µM (inactive); with SW-620, > 100 µM (inactive); in the test on RPMI-8226, > 100 µM (inactive); in the test on HOP-92 it was 29 µM (inactive).
